The target in assay [1] is Falcipain-3 (Plasmodium falciparum, UniProt Q8IIL0). Description: Falcipain-3 enzymatic assay (assay 1). The format is biochemical. An outline of the steps:
(§1)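 Recombinant parasite enzyme with 30 uM H-D-VLR-AFC in 100 mM sodium acetate pH 5.5, 10 mM DTT, 0.5 mM CHAPS, 1% DMSO, ambient temperature. Endpoint after 60 minutes, quenched with 16.6 uM E-64; AFC fluorescence (ex 405/em 530). IC50 from four-parameter fit, apparent KI assuming competitive inhibition.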

For assay [2], the system named is Plasmodium falciparum parasite. As to the kind of experiment: Whole cell assay (assay 2). The format is cell-based. From the text:
Assay 2) Determination of Whole Cell Activity Against the Plasmodium falciparum Parasite
Compounds can be evaluated for whole cell actvity against the Plasmodium falciparum parasite according to the procedure described in Sijwali S. and Rosenthal P. J., (2004) Proceedings of the National Academy of Sciences of the United States of America (PNAS) 101 (13), 4384-4389 (see in particular “Measurement of Parasite Growth rates and Inhibitor Sensitivity” on page 4385); IC50 values can be calculated as described in Singh A. and Rosenthal P. J., (2001) Antimicrobial Agents and Chemotherapy 45(3), 949-951 (see in particular page 950, first column); synchronised parasites can be prepared as described in Divo A. A. et al., (1985) Protozool. 32, 59-64.

Assay [3] concerns the target Falcipain-2 (Plasmodium falciparum, UniProt Q8I6U4). Description: Falcipain-2 enzymatic assay (assay 1). The format is biochemical. The procedure, abridged: as §1
Assay [4] addresses T1, Cathepsin K (Homo sapiens, UniProt P43235).
T1 sequence (P43235 115-329): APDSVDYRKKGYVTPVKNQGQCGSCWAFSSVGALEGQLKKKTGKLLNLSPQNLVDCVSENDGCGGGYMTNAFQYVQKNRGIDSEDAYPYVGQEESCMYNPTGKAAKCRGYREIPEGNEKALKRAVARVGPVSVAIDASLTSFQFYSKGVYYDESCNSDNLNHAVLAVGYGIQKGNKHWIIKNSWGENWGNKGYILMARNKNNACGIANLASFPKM
As to the kind of experiment: Cathepsin K enzymatic assay (assay 1). The format is biochemical. As to conditions: human recombinant enzyme, Z-FR-AFC substrate, pH 5.5. The procedure, abridged: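 Human recombinant cathepsin K was assayed with the fluorogenic substrate Z-FR-AFC at 20 uM in 100 mM sodium acetate, pH 5.5, with 5 mM L-cysteine, 1 mM CHAPS, 5 mM EDTA and 1% DMSO. Enzyme plus substrate was added to wells holding inhibitor in DMSO. After 60 minutes at ambient temperature, 16.6 uM E-64 quenched the reaction. AFC fluorescence (excitation 405 nm, emission 530 nm) was read, and IC50 came from a four-parameter dose-response fit.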

For assay [5], the target named is Cathepsin S (Homo sapiens, UniProt P25774). Description: Cathepsin S enzymatic assay (assay 1). The note with it: human recombinant enzyme, KQKLR-AMC substrate, pH 6.5. The format is biochemical. The procedure, abridged:
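Human recombinant cathepsin S activity was measured with the fluorogenic substrate KQKLR-AMC at 30 uM in 50 mM MES, pH 6.5, containing 0.5 mM CHAPS, 10 mM L-CYS and 5 mM EDTA with 1% DMSO. Enzyme and substrate were added to inhibitor wells, run at ambient temperature, quenched after 90 minutes with E-64, and AMC fluorescence (360/460 […]) was fit to give IC50.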

Each structure is given as a SMILES string. pIC50: −log10 of the molar value. Where a name gives a salt, the structure may show the parent alone.

Sequence of Falcipain-2 (Q8I6U4 244-484): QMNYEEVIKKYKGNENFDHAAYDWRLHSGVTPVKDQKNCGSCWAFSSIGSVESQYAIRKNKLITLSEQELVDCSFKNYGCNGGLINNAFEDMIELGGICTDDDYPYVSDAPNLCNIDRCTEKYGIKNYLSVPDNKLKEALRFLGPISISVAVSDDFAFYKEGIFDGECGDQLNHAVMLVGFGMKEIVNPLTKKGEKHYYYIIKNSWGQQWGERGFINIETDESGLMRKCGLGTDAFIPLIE
Sequence of Falcipain-3 (Q8IIL0 243-492): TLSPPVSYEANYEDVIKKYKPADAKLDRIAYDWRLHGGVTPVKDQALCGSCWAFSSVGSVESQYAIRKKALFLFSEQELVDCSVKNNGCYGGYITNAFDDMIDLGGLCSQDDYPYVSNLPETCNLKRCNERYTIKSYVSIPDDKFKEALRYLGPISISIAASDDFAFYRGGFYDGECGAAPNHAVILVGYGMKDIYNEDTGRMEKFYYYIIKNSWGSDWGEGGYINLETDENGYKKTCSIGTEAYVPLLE
Sequence of Cathepsin S (P25774 115-331): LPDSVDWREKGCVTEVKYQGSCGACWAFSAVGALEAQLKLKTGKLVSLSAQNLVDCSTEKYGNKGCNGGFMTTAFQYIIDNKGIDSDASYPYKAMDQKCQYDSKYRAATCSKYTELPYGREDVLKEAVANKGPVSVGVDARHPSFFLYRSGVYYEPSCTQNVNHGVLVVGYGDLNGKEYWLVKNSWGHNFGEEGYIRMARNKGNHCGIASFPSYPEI

By pIC50 is commonly meant the IC50 on a negative log10 scale, so that one unit is a factor of ten. In the case of `CN1CCN(Cc2ccc(-c3cncc(C(=O)NN(c4nc(C#N)ncc4Br)C4CCCC4)c3)cc2)CC1` [Example 45, N′-(5-bromo-2-cyano-4-pyrimidinyl)-N′-cyclopentyl-5-{4-[(4-methyl-1-piperazinyl)methyl]phenyl}-3-pyridinecarbohydrazide trifluoroacetate], the pIC50 in assay [1] is 7.82 to 8.60; in assay [2] (Plasmodium falciparum), 7.82 to 8.60; in assay [3] it was above 9.00; in assay [4], above 8.82; in assay [5] it was above 6.70.
With `CCCN1CCN(c2ccc(C(=O)NN(c3nc(C#N)ncc3Br)C3CCCCC3)cc2)CC1` [Example 80, N′-(5-bromo-2-cyano-4-pyrimidinyl)-N′-cyclohexyl-4-(4-propyl-1-piperazinyl)benzohydrazide trifluoroacetate], the pIC50 was 6.82 to 7.82 in assay [1]; 6.60 to 6.82 in assay [2] (Plasmodium falciparum); above 9.00 in assay [3]; above 8.82 in assay [4]; above 6.70 in assay [5].
On to `CN(CCN(C)C(=O)OC(C)(C)C)Cc1ccc(C(=O)NN(c2nc(C#N)ncc2Cl)C2CCCC2)cc1` [Example 84, 1,1-dimethylethyl{2-[[(4-{[2-(5-chloro-2-cyano-4-pyrimidinyl)-2-cyclopentylhydrazino]carbonyl}phenyl)methyl](methyl)amino]ethyl}methylcarbamate trifluoroacetate], for which the pIC50 in assay [1] was 7.82 to 8.60; in assay [2] (Plasmodium falciparum) it was 6.60 to 6.82; in assay [3], above 9.00; in assay [5], above 6.00.
Regarding `CN1CCN(Cc2ccc(C(=O)NN(c3nc(C#N)ncc3Br)C3CCCC3)cc2)CC1` [Example 1B, N′-(5-bromo-2-cyano-4-pyrimidinyl)-N′-cyclopentyl-4-[(4-methyl-1-piperazinyl)methyl]benzohydrazide hydrochloride], the pIC50 in assay [2] (hydrochloride) was 7.82 to 8.60; in assay [4], above 8.82; in assay [5], above 6.70.
Take `CN1CCN(Cc2ccc(C(=O)NN(c3nc(C#N)ncc3Br)C3CCCCC3)cc2)CC1` [Example 16, N′-(5-bromo-2-cyano-4-pyrimidinyl)-N′-cyclohexyl-4-[(4-methyl-1-piperazinyl)methyl]benzohydrazide trifluoroacetate]: the pIC50 in assay [1] was 7.82 to 8.60; in assay [2] (Plasmodium falciparum), 6.82 to 7.82; in assay [3], above 9.00; in assay [4], above 8.82; in assay [5] it was above 6.00.

The values are drawn from patent US20100009956A1, “NOVEL SUBSTITUTED PYRIMIDINES AS CYSTEINE PROTEASE INHIBITORS” (Glaxo Group Limited , a corporation, priority 2006, published 2010).
